Tests used:
MRP1 = MRP1 (Homo sapiens, UniProt P33527); test: Calcein-AM transport inhibition in MDCK-MRP1 cells (MRP1 activity)
Experimental: The activity at the MRP1 pump was determined measuring the transport inhibition of the pro-fluorescent probe Calcein-AM, an MRP1 substrate, in the MRP1-overexpressing cell line (MDCK-MRP1) by the in vitro biological assay usually performed to study an MRP1 interaction.
Each cell line (30,000 cells per well) was seeded into a black CulturePlate 96/well plate with a 100 μL medium and allowed to become confluent overnight. […] In these experimental conditions, the Calcein cell accumulation in the absence and in the presence of the tested compounds was evaluated and the fluorescence basal level was estimated with the untreated cells. In treated wells, the increase in fluorescence with respect to the basal level was measured. EC50 values were determined by fitting the fluorescence increase percentage vs. log(dose).

sigma-2 receptors = details: cited from earlier work; for Ki: read-out: Ki towards sigma-2 receptors
A549/DX cells = test: Cytotoxicity in A549/DX and parental A549 cells, selectivity ratio; assay type: cell-based, human; details: cytotoxicity in parental A549 vs resistant A549/DX cells, 24 h
Description: Therefore, A549/DX cells were selected as a model to investigate the CS properties of our compounds. Firstly, in order to confirm the data observed on the “pure” model MDCK-MRP1, we tested, in the same experimental conditions, the SR of F397, F400, and F421 by measuring their cytotoxicity in the resistant A549/DX cells and their parental counterpart A549, obtaining an SR ≥ 2 for all (SR = 2.5 for derivative F397, SR = 2.1 for F400, and SR = 2 for F421).
Since the doubling time of A549 cells is 22 h and the doubling time of A549/DX cells is 61 h (data not shown), in this first experimental set we used a 24 h time, i.e., the most suitable for A549 cells’ cytotoxicity as performed in the “pure” MRP1 model. Indeed, the accurate detection of cell viability in A549 cells was critical in calculating the SR in a reliable manner. The following experiments, all performed in A549/DX cells, were performed after 72 h, i.e., the best timing to detect a cytotoxic effect on the slowly growing resistant population.
The determination of cell growth was performed using an MTT assay at 24 or 72 h. On day 1, 10,000 cells/well were seeded into 96-well plates in a volume of 100 μL. On day 2, the drugs concentrations (0.1, 1, 10, 25 μM) were added. In all the experiments, the various drug solvents (ethanol, DMSO) were added in each control to evaluate a possible solvent cytotoxicity. After the established incubation time with drugs, 10 μL MTT (0.5 mg/mL) was added to each well, and after 3 h incubation at 37°C, the supernatant was removed. The formazan crystals were solubilized using 100 μL of DMSO and the absorbance values at 570 and 630 nm were determined on the microplate reader Victor 3 from PerkinElmer Life Sciences. The absorbance of the untreated cells was considered equal to 100% cell viability; the viability of cells measured in each experimental condition was expressed as a percentage of viable cells in the considered condition vs. the viability of the untreated cells.

A549/DX [1] = test: Mitochondrial ROS production in A549/DX (MitoSOX Red); assay type: cell-based, human; details: 24 h; for Mitochondrial ROS production with cis-Pt: 10 μM + cis-Pt 25 μM; for Mitochondrial ROS production, compound alone / Mitochondrial ROS production with Mitotempol: 10 μM; for Mitochondrial ROS production with Mitotempol: Mitotempol 10 mM
Experimental: An increase in ROS of mitochondrial origin is particularly effective in killing multidrug-resistant cells. To investigate whether the ROS were of mithocondrial origin, the same experiment was set up evaluating ROS production at 24 h with Mitotempol, the scavenger of mithocondrial ROS.
(§1) Here, 1 × 10^6 cells were re-suspended in a final volume of 0.5 mL PBS and incubated for 30 min at 37 °C with 5 μM of the fluorescent probe MitoSOX Red (Invitrogen Life Technology, Milano, Italy) in the dark. Cells were then centrifuged at 13,000× g at 37 °C and re-suspended in 0.5 mL PBS. The fluorescence of each sample, considered as the index of ROS levels, was read at 510 (λ excitation) and 580 nm (λ emission) using a Synergy HT Multi-Mode Microplate Reader (Bio-Tek Instruments). The results were expressed as nmol mitochondrial ROS/mg cell proteins. A preliminary titration curve was set up by incubating the cells for 1 h with the cells treated with serial dilutions (10–0.01 nM) of the pro-oxidant agent menadione.

A549/DX [2] = test: Intracellular total ROS production in A549/DX (DCFDA-AM); assay type: cell-based, human; details: for Intracellular ROS production with cis-Pt: 10 μM + 25 μM cis-Pt; for Intracellular ROS production with cis-Pt / Intracellular ROS production, compound alone: 24 h; for Intracellular ROS production, compound alone / Intracellular ROS production with ROS scavenger Tempol: 10 μM; for Intracellular ROS production with ROS scavenger Tempol: with 10 mM Tempol
Description: One of the possible reasons of this sensitization is the ability of these three compounds to inhibit the efflux of cis-Pt, which is MRP1-mediated. […] This could be associated with a second reason, considering one of the putative mechanisms of CS consisting of an increased production of ROS, capable of triggering the apoptosis of MDR cells. To investigate whether this mechanism is involved in the sensitizing effects elicited by F397, F400, and F421, we measured the intracellular ROS production in A549/DX after 24 h treatment with these three molecules at 10 μM, with and without 25 μM cis-Pt (Figure 5A). […] Moreover, to verify whether the increase in ROS induced the reduction in cell viability elicited by the compounds, we evaluated the antiproliferative effect at 72 h of these three sensitizers alone and with 25 μM cis-Pt, adding 10 mM Tempol at time zero and after 48 h from the incubation.
as §1, with “10^6 whole” for “10^6”, “5-(and-6)-chloromethyl-2’,7’-dichlorodihydro-fluorescein diacetate-acetoxymethyl ester (DCFDA-AM, Sigma Chemicals Co.)” for “MitoSOX Red (Invitrogen Life Technology, Milano, Italy)”, “492” for “510”, “517” for “580”, “total” for “mitochondrial”

Sequence of MRP1 (P33527 whole entry): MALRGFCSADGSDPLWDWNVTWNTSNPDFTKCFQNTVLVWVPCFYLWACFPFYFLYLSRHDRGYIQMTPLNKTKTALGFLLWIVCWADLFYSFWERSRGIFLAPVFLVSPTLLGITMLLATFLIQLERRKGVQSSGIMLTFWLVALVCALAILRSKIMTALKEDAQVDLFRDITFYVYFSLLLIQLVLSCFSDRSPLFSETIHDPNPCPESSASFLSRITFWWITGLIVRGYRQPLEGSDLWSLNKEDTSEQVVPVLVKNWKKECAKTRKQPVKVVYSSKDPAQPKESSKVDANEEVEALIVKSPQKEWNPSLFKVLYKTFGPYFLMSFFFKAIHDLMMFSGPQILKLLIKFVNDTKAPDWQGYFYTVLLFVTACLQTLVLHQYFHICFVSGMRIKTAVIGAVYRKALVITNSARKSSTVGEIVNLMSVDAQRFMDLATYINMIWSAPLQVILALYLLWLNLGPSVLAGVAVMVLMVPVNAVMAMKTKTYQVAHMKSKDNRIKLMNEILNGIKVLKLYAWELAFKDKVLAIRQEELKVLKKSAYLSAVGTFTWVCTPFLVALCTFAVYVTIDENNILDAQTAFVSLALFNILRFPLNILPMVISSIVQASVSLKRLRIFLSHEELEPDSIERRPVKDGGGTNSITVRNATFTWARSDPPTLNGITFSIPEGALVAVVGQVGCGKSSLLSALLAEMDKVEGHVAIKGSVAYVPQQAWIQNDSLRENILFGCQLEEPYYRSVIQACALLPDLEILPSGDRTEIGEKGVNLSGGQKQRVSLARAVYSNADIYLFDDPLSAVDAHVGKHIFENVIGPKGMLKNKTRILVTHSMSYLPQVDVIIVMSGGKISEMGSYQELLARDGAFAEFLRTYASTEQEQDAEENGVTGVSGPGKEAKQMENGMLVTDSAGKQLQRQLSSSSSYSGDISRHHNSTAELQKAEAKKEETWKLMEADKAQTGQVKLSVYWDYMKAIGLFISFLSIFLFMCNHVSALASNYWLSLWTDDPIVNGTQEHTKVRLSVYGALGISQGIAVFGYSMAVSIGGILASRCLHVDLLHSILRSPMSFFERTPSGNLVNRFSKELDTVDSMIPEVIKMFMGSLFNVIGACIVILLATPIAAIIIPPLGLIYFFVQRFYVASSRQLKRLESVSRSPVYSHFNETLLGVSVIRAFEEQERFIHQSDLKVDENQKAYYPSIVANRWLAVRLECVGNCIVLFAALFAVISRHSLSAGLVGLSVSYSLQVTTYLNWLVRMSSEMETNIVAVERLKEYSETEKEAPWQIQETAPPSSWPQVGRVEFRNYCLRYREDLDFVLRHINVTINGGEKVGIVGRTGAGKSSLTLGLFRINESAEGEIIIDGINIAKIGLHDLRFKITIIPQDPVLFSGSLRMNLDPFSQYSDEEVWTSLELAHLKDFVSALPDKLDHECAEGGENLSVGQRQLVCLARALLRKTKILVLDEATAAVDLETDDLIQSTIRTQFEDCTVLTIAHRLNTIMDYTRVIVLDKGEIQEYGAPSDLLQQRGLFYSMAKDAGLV

Compound	EC50 (MRP1) [µM]	Ki (sigma-2 receptors) [nM]	SR (selectivity ratio) (A549/DX cells)	Mitochondrial ROS production with cis-Pt (A549/DX [1])	Mitochondrial ROS production, compound alone (A549/DX [1])	Mitochondrial ROS production with Mitotempol (A549/DX [1])	Intracellular ROS production with cis-Pt (A549/DX [2])	Intracellular ROS production, compound alone (A549/DX [2])	Intracellular ROS production with ROS scavenger Tempol (A549/DX [2])	sigma-2 receptor affinity (sigma-2 receptors)
COc1cc2c(cc1OC)CN(CCCCc1cn(-c3ccc(F)cc3)c3ccccc13)CC2 [F397, 6,7-dimethoxy-2-{4-[1-(4-fluorophenyl)-1H-indol-3-yl]butyl}-1,2,3,4-tetrahydroisoquinoline]	16.7 ± 3.2	5.34	2.5	enforced by the concurrent administration of cis-Pt	increased the intramithocondrial ROS	reversed by Mitotempol	further enhanced when they were co-administrated with the antineoplastic drug	increased the amount of intracellular ROS	reverted by the ROS scavenger Tempol	–
COc1cc2c(cc1OC)CN(C(=O)CCC1CCCc3c(OC)cccc31)CC2 (stereo not drawn) [F400, 6,7-dimethoxy-2-[3-(5-methoxy-1,2,3,4-tetrahydronaphthalen-1-yl)propionyl]-1,2,3,4 tetrahydroisoquinoline]	17.6 ± 3.8	–	2.1	enforced by the concurrent administration of cis-Pt	increased the intramithocondrial ROS	reversed by Mitotempol	further enhanced when they were co-administrated with the antineoplastic drug	increased the amount of intracellular ROS	reverted by the ROS scavenger Tempol	devoid of sigma-2 receptor affinity
COc1ccc(CNCCCCc2cn(-c3ccc(F)cc3)c3ccccc23)cc1OC [F421, N-{4-[1-(4-fluorophenyl)-1H-indol-3-yl]butyl}-3,4-dimethoxybenzylamine]	28 ± 4.8	169	2	enforced by the concurrent administration of cis-Pt	increased the intramithocondrial ROS	reversed by Mitotempol	further enhanced when they were co-administrated with the antineoplastic drug	increased the amount of intracellular ROS	reverted by the ROS scavenger Tempol	–

From paper PMC7247425, “MRP1-Collateral Sensitizers as a Novel Therapeutic Approach in Resistant Cancer Therapy: An In Vitro and In Vivo Study in Lung Resistant Tumor” (International Journal of Molecular Sciences, 2020)
